From ChEMBL document CHEMBL3758169, “4-Aminoindazolyl-dihydrofuro[3,4-d]pyrimidines as non-covalent inhibitors of mutant epidermal growth factor receptor tyrosine kinase” (Bioorg Med Chem Lett, 2016)
Values belong to the molecule of their own block, whether it stands above or below them.

Legend:
[1] = molecular target: Tyrosine-protein kinase Lyn (Homo sapiens) (UniProt P07948); experiment: Inhibition of LYNB (unknown origin) at 100 nM
[2] = molecular target: MAP kinase-interacting serine/threonine-protein kinase 2 (Homo sapiens) (UniProt Q9HBH9); experiment: Inhibition of MKNK2 (unknown origin) at 100 nM
[3] = molecular target: Mitogen-activated protein kinase kinase kinase 11 (Homo sapiens) (UniProt Q16584); experiment: Inhibition of MLK3 (unknown origin) at 100 nM
[4] = molecular target: Serine/threonine-protein kinase MRCK alpha (Homo sapiens) (UniProt Q5VT25); experiment: Inhibition of MRCKalpha (unknown origin) at 100 nM
[5] = molecular target: SRSF protein kinase 3 (Homo sapiens) (UniProt Q9UPE1); experiment: Inhibition of MSSK1 (unknown origin) at 100 nM
[6] = molecular target: Serine/threonine-protein kinase 4 (Homo sapiens) (UniProt Q13043); experiment: Inhibition of MST1 (unknown origin) at 100 nM
[7] = molecular target: Serine/threonine-protein kinase 24 (Homo sapiens) (UniProt Q9Y6E0); experiment: Inhibition of MST3 (unknown origin) at 100 nM
[8] = molecular target: Serine/threonine-protein kinase 26 (Homo sapiens) (UniProt Q9P289); experiment: Inhibition of MST4 (unknown origin) at 100 nM
[9] = molecular target: Serine/threonine-protein kinase Nek7 (Homo sapiens) (UniProt Q8TDX7); experiment: Inhibition of NEK7 (unknown origin) at 100 nM
[10] = molecular target: Serine/threonine-protein kinase PAK 6 (Homo sapiens) (UniProt Q9NQU5); experiment: Inhibition of PAK6 (unknown origin) at 100 nM
[11] = molecular target: Serine/threonine-protein kinase PAK 5 (Homo sapiens) (UniProt Q9P286); experiment: Inhibition of PAK7 (unknown origin) at 100 nM
[12] = test system: Platelet-derived growth factor receptor alpha (Homo sapiens), P16234 [T674I]; experiment: Inhibition of PDGFRalpha T674I mutant (unknown origin) at 100 nM
[13] = molecular target: 3-phosphoinositide-dependent protein kinase 1 (Homo sapiens) (UniProt O15530); experiment: Inhibition of PDK1 (unknown origin) at 100 nM
[14] = molecular target: 3-phosphoinositide-dependent protein kinase 1 (Homo sapiens) (UniProt O15530); experiment: Inhibition of PDK1 (unknown origin) by direct binding assay at 100 nM
[15] = molecular target: Phosphatidylinositol 4,5-bisphosphate 3-kinase catalytic subunit delta isoform (Homo sapiens) (UniProt O00329); experiment: Inhibition of PI3KD (unknown origin) at 100 nM
[16] = molecular target: Phosphatidylinositol 4,5-bisphosphate 3-kinase catalytic subunit gamma isoform (Homo sapiens) (UniProt P48736); experiment: Inhibition of PI3KG (unknown origin) at 100 nM
[17] = molecular target: Phosphatidylinositol 4-kinase alpha (Homo sapiens) (UniProt P42356); experiment: Inhibition of PI4Ka (unknown origin) at 100 nM
[18] = molecular target: Phosphatidylinositol 4-kinase beta (Homo sapiens) (UniProt Q9UBF8); experiment: Inhibition of PI4Kb (unknown origin) at 100 nM
[19] = molecular target: Protein kinase C epsilon type (Homo sapiens) (UniProt Q02156); experiment: Inhibition of PKCepsilon (unknown origin) at 100 nM
[20] = molecular target: Serine/threonine-protein kinase D2 (Homo sapiens) (UniProt Q9BZL6); experiment: Inhibition of PKD2 (unknown origin) at 100 nM
[21] = molecular target: MAP kinase-activated protein kinase 5 (Homo sapiens) (UniProt Q8IW41); experiment: Inhibition of PRAK (unknown origin) at 100 nM
[22] = molecular target: Phosphorylase b kinase gamma catalytic chain, skeletal muscle/heart isoform (Homo sapiens) (UniProt Q16816); experiment: Inhibition of PHKgamma1 (unknown origin) at 100 nM
[23] = molecular target: Serine/threonine-protein kinase Sgk3 (Homo sapiens) (UniProt Q96BR1); experiment: Inhibition of SGK3 (unknown origin) at 100 nM
[24] = molecular target: Testis-specific serine/threonine-protein kinase 2 (Homo sapiens) (UniProt Q96PF2); experiment: Inhibition of TSSK2 (unknown origin) at 100 nM
[25] = molecular target: Tyrosine-protein kinase TXK (Homo sapiens) (UniProt P42681); experiment: Inhibition of TXK (unknown origin) at 100 nM
[26] = molecular target: Mitogen-activated protein kinase 11 (Homo sapiens) (UniProt Q15759); experiment: Inhibition of p38beta(unknown origin) at 100 nM
[27] = Total AUC in rat at 5 mg/kg, po; assay type: ADME, organism-based; set-up: dose 5 mg/kg, time AUCmax, route oral; conditions: in vivo
[28] = molecular target: Casein kinase I isoform delta (Homo sapiens) (UniProt P48730); experiment: Inhibition of CK1delta (unknown origin) at 100 nM
[29] = molecular target: Tyrosine-protein kinase CSK (Homo sapiens) (UniProt P41240); experiment: Inhibition of CSK (unknown origin) at 100 nM
[30] = molecular target: Calcium/calmodulin-dependent protein kinase type II subunit alpha (Homo sapiens) (UniProt Q9UQM7); experiment: Inhibition of CamKIIalpha (unknown origin) at 100 nM
[31] = molecular target: Myotonin-protein kinase (Homo sapiens) (UniProt Q09013); experiment: Inhibition of DMPK (unknown origin) at 100 nM
[32] = molecular target: Dual specificity tyrosine-phosphorylation-regulated kinase 1B (Homo sapiens) (UniProt Q9Y463); experiment: Inhibition of DYRK1B (unknown origin) at 100 nM
[33] = molecular target: Dual specificity tyrosine-phosphorylation-regulated kinase 4 (Homo sapiens) (UniProt Q9NR20); experiment: Inhibition of DYRK4 (unknown origin) at 100 nM
[34] = molecular target: Ephrin type-A receptor 5 (Homo sapiens) (UniProt P54756); experiment: Inhibition of EPHA5 (unknown origin) at 100 nM
[35] = molecular target: Receptor tyrosine-protein kinase erbB-4 (Homo sapiens) (UniProt Q15303); experiment: Inhibition of ERBB4 (unknown origin) at 100 nM
[36] = molecular target: Vascular endothelial growth factor receptor 3 (Homo sapiens) (UniProt P35916); experiment: Inhibition of FLT4 (unknown origin) at 100 nM
[37] = molecular target: Beta-adrenergic receptor kinase 1 (Homo sapiens) (UniProt P25098); experiment: Inhibition of GRK2 (unknown origin) at 100 nM
[38] = molecular target: G protein-coupled receptor kinase 6 (Homo sapiens) (UniProt P43250); experiment: Inhibition of GRK6 (unknown origin) at 100 nM
[39] = molecular target: Homeodomain-interacting protein kinase 4 (Homo sapiens) (UniProt Q8NE63); experiment: Inhibition of HIPK4 (unknown origin) at 100 nM
[40] = molecular target: Tyrosine-protein kinase HCK (Homo sapiens) (UniProt P08631); experiment: Inhibition of HCK (unknown origin) at 100 nM
[41] = molecular target: LIM domain kinase 1 (Homo sapiens) (UniProt P53667); experiment: Inhibition of LIMK1 (unknown origin) at 100 nM
[42] = test system: Leucine-rich repeat serine/threonine-protein kinase 2 (Homo sapiens), Q5S007 [G2019S]; experiment: Inhibition of LRRK2 G2019S mutant (unknown origin) at 100 nM
[43] = molecular target: Mitogen-activated protein kinase kinase kinase kinase 2 (Homo sapiens) (UniProt Q12851); experiment: Inhibition of GCK (unknown origin) at 100 nM

Sequence of 3-phosphoinositide-dependent protein kinase 1 (Homo sapiens) (O15530 whole entry, canonical isoform): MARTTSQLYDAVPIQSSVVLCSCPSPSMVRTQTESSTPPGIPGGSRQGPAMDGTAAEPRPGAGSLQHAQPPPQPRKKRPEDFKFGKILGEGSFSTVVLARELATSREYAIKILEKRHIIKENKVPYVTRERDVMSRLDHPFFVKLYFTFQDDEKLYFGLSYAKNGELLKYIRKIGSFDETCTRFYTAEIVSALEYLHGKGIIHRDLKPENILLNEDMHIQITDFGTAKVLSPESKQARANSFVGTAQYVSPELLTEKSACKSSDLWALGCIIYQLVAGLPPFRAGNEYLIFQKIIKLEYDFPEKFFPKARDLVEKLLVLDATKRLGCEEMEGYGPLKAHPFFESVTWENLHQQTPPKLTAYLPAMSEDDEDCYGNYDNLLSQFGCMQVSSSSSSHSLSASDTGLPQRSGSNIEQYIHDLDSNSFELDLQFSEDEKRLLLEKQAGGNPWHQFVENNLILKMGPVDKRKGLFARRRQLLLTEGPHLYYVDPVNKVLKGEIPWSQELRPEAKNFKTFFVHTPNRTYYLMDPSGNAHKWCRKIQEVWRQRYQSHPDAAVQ
Sequence of Serine/threonine-protein kinase Sgk3 (Homo sapiens) (Q96BR1 whole entry): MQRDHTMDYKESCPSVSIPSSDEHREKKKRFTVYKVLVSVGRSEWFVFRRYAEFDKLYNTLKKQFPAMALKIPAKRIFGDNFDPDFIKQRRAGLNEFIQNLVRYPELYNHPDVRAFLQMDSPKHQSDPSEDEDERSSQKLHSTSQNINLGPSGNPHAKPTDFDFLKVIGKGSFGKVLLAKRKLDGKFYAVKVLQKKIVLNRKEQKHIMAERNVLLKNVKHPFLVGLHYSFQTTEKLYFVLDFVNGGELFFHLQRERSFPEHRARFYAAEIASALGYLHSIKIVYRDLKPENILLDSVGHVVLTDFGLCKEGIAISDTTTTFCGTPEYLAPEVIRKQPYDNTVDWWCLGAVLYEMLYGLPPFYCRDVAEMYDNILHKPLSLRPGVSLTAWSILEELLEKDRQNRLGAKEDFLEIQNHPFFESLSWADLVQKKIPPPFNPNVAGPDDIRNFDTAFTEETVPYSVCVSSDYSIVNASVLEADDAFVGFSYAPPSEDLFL
Sequence of Receptor tyrosine-protein kinase erbB-4 (Homo sapiens) (Q15303 whole entry): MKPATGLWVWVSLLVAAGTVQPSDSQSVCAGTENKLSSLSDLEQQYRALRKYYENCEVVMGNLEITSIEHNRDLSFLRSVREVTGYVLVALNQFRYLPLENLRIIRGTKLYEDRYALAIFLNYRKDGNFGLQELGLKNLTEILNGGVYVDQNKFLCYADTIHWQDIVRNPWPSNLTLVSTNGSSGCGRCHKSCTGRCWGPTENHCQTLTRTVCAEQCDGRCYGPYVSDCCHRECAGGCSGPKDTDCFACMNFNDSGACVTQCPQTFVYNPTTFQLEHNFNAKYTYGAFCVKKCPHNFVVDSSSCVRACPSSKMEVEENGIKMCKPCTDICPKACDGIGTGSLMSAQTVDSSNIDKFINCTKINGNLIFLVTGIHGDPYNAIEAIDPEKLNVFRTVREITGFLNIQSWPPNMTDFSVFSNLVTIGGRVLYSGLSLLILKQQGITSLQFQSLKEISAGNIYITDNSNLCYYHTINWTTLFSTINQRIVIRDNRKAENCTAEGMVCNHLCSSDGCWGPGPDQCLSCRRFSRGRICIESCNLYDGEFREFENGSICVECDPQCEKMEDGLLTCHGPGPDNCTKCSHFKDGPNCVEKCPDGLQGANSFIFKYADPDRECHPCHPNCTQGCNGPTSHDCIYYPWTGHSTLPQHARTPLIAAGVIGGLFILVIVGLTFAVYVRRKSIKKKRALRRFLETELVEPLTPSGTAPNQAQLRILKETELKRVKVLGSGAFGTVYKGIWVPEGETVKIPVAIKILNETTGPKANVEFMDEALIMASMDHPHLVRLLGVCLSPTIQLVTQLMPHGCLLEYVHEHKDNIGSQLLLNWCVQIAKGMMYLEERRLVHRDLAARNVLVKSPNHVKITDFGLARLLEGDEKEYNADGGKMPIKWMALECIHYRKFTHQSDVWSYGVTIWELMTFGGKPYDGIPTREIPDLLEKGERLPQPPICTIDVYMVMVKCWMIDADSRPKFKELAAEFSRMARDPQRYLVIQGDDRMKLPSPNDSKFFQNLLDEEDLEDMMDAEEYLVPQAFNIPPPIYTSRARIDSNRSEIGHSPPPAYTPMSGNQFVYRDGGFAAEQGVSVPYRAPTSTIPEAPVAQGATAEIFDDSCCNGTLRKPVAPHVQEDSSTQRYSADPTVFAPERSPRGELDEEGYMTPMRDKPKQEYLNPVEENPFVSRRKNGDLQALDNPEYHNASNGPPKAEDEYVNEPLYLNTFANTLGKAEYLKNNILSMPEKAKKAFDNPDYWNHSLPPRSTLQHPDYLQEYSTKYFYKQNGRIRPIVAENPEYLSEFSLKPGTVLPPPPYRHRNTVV
Sequence of Testis-specific serine/threonine-protein kinase 2 (Homo sapiens) (Q96PF2 whole entry): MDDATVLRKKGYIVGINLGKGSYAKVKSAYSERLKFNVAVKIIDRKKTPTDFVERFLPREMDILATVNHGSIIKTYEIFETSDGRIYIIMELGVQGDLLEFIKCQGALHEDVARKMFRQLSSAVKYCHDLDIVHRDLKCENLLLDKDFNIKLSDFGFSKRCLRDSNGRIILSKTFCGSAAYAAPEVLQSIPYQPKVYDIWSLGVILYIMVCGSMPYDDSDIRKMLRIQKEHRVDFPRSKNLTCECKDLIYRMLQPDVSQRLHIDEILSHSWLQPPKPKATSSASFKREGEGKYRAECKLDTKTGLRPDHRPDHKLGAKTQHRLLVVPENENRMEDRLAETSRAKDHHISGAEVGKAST
Sequence of Dual specificity tyrosine-phosphorylation-regulated kinase 4 (Homo sapiens) (Q9NR20 whole entry): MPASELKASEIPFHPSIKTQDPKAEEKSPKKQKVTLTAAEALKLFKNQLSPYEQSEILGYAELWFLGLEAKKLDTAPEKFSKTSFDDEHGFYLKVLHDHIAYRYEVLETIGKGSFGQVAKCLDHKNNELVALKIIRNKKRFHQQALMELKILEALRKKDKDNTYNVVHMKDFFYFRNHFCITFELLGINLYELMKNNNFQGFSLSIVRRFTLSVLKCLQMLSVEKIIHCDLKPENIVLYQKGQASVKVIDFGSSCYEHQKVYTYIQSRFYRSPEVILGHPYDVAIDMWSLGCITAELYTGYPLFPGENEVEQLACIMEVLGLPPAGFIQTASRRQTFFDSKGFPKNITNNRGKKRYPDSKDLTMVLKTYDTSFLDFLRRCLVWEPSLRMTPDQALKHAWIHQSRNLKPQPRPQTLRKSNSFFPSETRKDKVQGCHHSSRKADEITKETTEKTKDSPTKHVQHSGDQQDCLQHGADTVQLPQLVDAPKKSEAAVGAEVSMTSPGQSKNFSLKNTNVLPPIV
Sequence of MAP kinase-interacting serine/threonine-protein kinase 2 (Homo sapiens) (Q9HBH9 whole entry, looked up): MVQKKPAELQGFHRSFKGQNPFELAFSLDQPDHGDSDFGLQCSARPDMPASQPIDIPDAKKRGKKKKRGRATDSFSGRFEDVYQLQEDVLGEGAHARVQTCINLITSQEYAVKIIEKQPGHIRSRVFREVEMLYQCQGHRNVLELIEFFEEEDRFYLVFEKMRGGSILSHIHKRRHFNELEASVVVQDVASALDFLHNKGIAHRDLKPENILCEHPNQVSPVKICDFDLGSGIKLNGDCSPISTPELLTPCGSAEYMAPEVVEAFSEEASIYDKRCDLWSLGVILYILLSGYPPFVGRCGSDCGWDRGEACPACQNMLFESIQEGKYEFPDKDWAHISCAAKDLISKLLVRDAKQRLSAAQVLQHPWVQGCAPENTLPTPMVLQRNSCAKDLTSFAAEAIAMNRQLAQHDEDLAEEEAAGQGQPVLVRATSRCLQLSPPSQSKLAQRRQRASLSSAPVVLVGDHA
Sequence of Vascular endothelial growth factor receptor 3 (Homo sapiens) (P35916 whole entry): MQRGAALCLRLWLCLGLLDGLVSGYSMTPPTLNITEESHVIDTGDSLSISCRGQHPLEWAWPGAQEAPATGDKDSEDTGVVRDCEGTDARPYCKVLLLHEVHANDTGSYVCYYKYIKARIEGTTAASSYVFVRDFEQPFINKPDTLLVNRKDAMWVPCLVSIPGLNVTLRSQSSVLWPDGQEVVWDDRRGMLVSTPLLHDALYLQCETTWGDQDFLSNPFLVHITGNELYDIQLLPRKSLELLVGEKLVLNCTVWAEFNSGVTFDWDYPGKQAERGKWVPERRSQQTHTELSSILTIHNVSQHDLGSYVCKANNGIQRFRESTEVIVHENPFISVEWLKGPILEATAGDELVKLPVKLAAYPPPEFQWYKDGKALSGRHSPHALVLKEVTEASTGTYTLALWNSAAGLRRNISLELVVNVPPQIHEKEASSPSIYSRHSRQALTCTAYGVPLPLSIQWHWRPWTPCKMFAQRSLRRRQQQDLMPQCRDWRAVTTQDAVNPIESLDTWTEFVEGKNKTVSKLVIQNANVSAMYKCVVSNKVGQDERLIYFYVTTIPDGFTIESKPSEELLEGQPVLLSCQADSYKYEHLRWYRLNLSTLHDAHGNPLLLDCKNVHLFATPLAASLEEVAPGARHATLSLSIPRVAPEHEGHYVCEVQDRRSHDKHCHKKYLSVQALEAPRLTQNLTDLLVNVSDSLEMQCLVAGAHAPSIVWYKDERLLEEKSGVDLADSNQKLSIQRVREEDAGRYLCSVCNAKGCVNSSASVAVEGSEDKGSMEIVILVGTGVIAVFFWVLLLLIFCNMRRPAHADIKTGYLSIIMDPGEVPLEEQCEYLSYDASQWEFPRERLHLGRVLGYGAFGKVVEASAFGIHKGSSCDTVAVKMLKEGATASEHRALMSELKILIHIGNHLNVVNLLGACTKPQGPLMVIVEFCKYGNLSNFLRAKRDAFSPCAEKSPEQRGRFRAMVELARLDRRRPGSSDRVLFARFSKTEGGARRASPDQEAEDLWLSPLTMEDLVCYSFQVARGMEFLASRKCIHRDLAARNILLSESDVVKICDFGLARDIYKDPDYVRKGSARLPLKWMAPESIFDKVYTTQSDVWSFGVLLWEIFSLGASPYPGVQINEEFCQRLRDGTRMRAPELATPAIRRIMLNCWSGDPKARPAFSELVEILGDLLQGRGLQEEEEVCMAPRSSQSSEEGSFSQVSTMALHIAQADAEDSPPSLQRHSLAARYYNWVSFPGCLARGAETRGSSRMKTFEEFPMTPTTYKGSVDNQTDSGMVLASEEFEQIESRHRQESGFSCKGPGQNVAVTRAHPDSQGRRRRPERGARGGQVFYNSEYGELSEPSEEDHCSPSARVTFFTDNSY

- inhibition [1]: 89.4%
- inhibition [2]: -2.3%
- inhibition [3]: 6.7%
- inhibition [4]: 1.9%
- inhibition [5]: -3.2%
- inhibition [6]: 13.1%
- inhibition [7]: 0.8%
- inhibition [8]: 0.2%
- inhibition [9]: 8.4%
- inhibition [10]: -0.3%
- inhibition [11]: -1.8%
- inhibition [12]: 9.5%
- inhibition [13]: 3.4%
- inhibition [14]: -1.4%
- inhibition [15]: -7.6%
- inhibition [16]: 15.1%
- inhibition [17]: -2.6%
- inhibition [18]: 10.1%
- inhibition [19]: 4.9%
- inhibition [20]: 7.8%
- inhibition [21]: 5.7%
- inhibition [22]: 8.5%
- inhibition [23]: 3.1%
- inhibition [24]: 4%
- inhibition [25]: 61.5%
- inhibition [26]: 8.7%
- AUC [27]: 0.37 µM·h
- inhibition [28]: 13.1%
- inhibition [29]: 3.7%
- inhibition [30]: -0.1%
- inhibition [31]: 3.3%
- inhibition [32]: -1.6%
- inhibition [33]: 0.7%
- inhibition [34]: 15.7%
- inhibition [35]: 89.9%
- inhibition [36]: 95.8%
- inhibition [37]: -0.6%
- inhibition [38]: 1.6%
- inhibition [39]: 5.1%
- inhibition [40]: 65.6%
- inhibition [41]: 3.1%
- inhibition [42]: 16%
Structure (SMILES): CC1(C)OCc2c(Nc3n[nH]c4ccccc34)nc(-c3cn[nH]c3)nc21

- inhibition [43]: 6.4%
Structure (SMILES): CC1(C)OCc2c(Nc3n[nH]c4c(Cl)cccc34)nc(-c3cn[nH]c3)nc21
